According to patent publication US20220054595A1, “Formulation Including a Combination of beta-Endorphin and Adrenocorticotropic Hormone” (Adamis Pharmaceuticals Corporation, priority 2019, published 2022):

Legend:
[1] = test system: EAE induced in SJL mice by PLP139-151/CFA immunization; experiment: EAE in SJL mice, late therapeutic treatment: clinical findings; type: in vivo, mouse
Description: (§1) The effect of administration of two dosages of ACTH and β-endorphin on severity and relapse in EAE was evaluated. EAE was induced in SJL mice by PLP139-151/CFA immunization on Day 0. Treatment was late therapeutic, starting on Day 20 after immunization for each mouse. Mice were observed through the end of the study, Day 42 after immunization. Four groups of 20 mice each received one of the following treatments: vehicle (a negative control); 10 mg/kg oral prednisolone daily (reference treatment); 32 μg ACTH+16 μg endorphin by subcutaneous injection, every 2nd day (low dose); or 64 μg ACTH+32 μg β-endorphin by subcutaneous injection, every 2nd day (high dose).
Mice were injected subcutaneously at four sites in the back with emulsion containing PLP139-151 (native sequence) from HOOKE KIT™ PLP139-151/CFA Emulsion, catalog number EK-0120 (Hooke Laboratories, Lawrence Mass.). Two sites of injection were in the upper back approximately 1 cm caudal of the neck line. The other two sites were in the lower back approximately 2 cm cranial of the base of the tail. The injection volume was 0.05 mL at each site. Even without treatment, most mice recover spontaneously after the first wave of disease. In the SJL model, EAE develops 10-15 days after immunization in 90-100% of immunized mice. The first wave of EAE lasts several days and most mice fully or almost fully recover from this first wave. After a disease-free period, which can last from one day to several months, most mice relapse. During the first 5-7 weeks after immunization, 50-100% of mice will develop a relapse. Each wave of paralysis results in body weight loss at onset, most of which is regained at recovery from the wave. The greatest weight loss is during the first wave of EAE. During the chronic phase of disease, the average EAE body weight is relatively stable, with normal slow increase with age. Since individual mice experience relapses at different times, only a few mice in each group are acutely sick at any given time after the first wave of EAE. Therefore, significant differences in relative body weight between groups are often not found after the first wave of disease in this model. In the vehicle treated group, disease developed as expected for this model. Five (5) mice were euthanized on Day 30 for analysis. Relapse occurred in 7 out of the 15 remaining mice, which were followed to Day 42, with typical course and severity of disease.
100 EAE induced mice were initially considered a single group and were scored daily starting on Day 9 after immunization. On Day 20, mice were assigned to the experimental groups in a balanced manner to achieve groups with similar times of EAE onset, similar maximum EAE score and similar scores at the time of enrollment into treatment (see Table 2). The remaining mice, which developed EAE last, or which developed unusual signs of EAE such as head tilting, were not assigned to any treatment group. […]
Treatment started on the day of group assignment (Day 20 after immunization). […] EAE score was determined daily by a person unaware of both treatment and of previous scores for each mouse. Weight was measured 3 times a week. […]

[2] = test system: EAE induced in SJL mice by PLP139-151/CFA immunization; experiment: EAE in SJL mice: histological and immunohistological analyses; type: in vivo, mouse
Description: as §1
Treatment started on the day of group assignment (Day 20 after immunization). This was the time of the expected end of the first wave of EAE and before relapses were expected to begin. Treatment continued through Day 41. EAE score was determined daily by a person unaware of both treatment and of previous scores for each mouse. Weight was measured 3 times a week. Five mice in each group were euthanized on day 30 and the fifteen remaining mice euthanized at the end of the study (Day 42). Histological and immunohistological analyses were performed on tissue collected from the euthanized mice.

[3] = test system: acute epileptic extensor spasms (AEES) in Ts65Dn mouse; details: GABABR agonist-treated Ts65Dn mouse; cited from earlier work

Compound	End score ± SD ([1]; EAE score (scale 0-5) at end of study, mice followed until Day 42)	Body weight change versus vehicle control (in words) ([1]; end of study)	MMS of relapse period ± SD (Days 25-42) ([1]; mean maximal EAE score (scale 0-5), mice followed until Day 42, all mice in the group)	Incidence of relapse ([1]; mice followed until Day 42, treatment Day 20-41, mice that relapsed as proportion of surviving mice that developed first wave of EAE) [%]	End % body weight ± SD ([1]; relative body weight at end of study, mice followed until Day 42)	Demyelination (anti-MBP) ± SD ([2]; anti-myelin basic protein staining score 0-5)	GFAP ± SD (% of area) ([2]; gliosis, % of total spinal cord area)	lba1 ± SD (% of area) ([2]; microglial activation, % of total spinal cord area)	Demyelination, anti-myelin basic protein staining score versus vehicle (in words) ([2]; mouse, in vivo)	Gliosis (scarring), area of anti-GFAP staining versus vehicle (in words) ([2]; mouse, in vivo)	Inflammation and inflammatory infiltrates, number of inflammatory foci versus vehicle (in words) ([2]; mouse, in vivo)	Inflammatory foci/section ± SD ([2]; spinal cord histology of euthanized mice) [foci/section]	Reduction of AEES [3]
C[C@]12C=CC(=O)C=C1CC[C@@H]1[C@@H]2[C@@H](O)C[C@@]2(C)[C@H]1CC[C@]2(O)C(=O)CO [Prednisolone, prednisolone]	1.47 ± 1.04	statistically significant loss of weight versus the vehicle control	2.07 ± 1.10	33.3	88.6% ± 9.3%	0.9 ± 0.6	13.3 ± 2.0 % of area	4.0 ± 1.2 % of area	only at best a trend to reduction	a higher level of gliosis	only at best a trend to reduction	3.8 ± 2.4	–
Rodent ACTH: murine ACTH, SEQ ID NO: 9, SYSMEHFRWGKPVGKKRRPVKVYPNVAENESAEAFPLEF (listed as Mus musculus)	–	–	–	–	–	–	–	–	–	–	–	–	can significantly reduce AEES
